Patent EP2431041A1, “PHARMACEUTICAL COMPOSITION FOR TREATING CARDIOVASCULAR DISORDER AND USE THEREOF” (Chengdu Kanghong Pharmaceutical Co., Ltd., priority 2009, dated 2010)

How the values were obtained:
[1] = test system: rabbit with lipid disorders; test: lipid disorders in rabbit, serum TC and TG (Test Example 8); assay type: in vivo, Japanese white rabbit
Excerpt: Procedure: Animals were subjected to acclimation feeding for 10 days. […] After raised with the feed for 15 days, the animals were subjected to blood sampling from central ear artery while fasting. The sera were separated and analyzed for various blood lipid indices. From 40 animals raised with the high-fat feed, 30 animals were selected on the basis of TC content and assigned into five groups by randomized block design with six animals per group; six animals raised with the basal feed were used as the blank control group. […] Administration lasted for 4 weeks. […] ANOVA of randomized block design was used for comparisons among multiple groups, and SNK-q test was used for comparisons between two groups.
Blood samples were collected from the fasting animals in each of the groups of the experiment prior to the administration and in 24 h after the final administration and assayed for the content of total cholesterol (TC) and triglyceride (TG). Table 11 Effect of the drugs in each of the groups on serum TC and TG levels ( x ± s, n =6).

[2] = test system: rat with an acute myocardial ischemia caused by PIT; test: rat myocardial ischemia caused by pituitrin (PIT), ST segment of ECG (Test Example 5); assay type: in vivo, SD rats; conditions: for ΔST Σ: sum of ST segment shift; for ΔST 10 sec / ΔST 30 sec / ΔST 1 min / ΔST 2 min / ΔST 4 min / ΔST 6 min / ΔST 8 min / ΔST 10 min / ΔST 13 min / ΔST 15 min: time after PIT injection
Protocol: Each animal in all groups was intragastrically administered with the corresponding drug at a volume of 10 ml/kg, for 7 successive days. The rat was injected intraperitoneally with 1% sodium pentobarbital (30 mg/kg) 100 min after the final administration. When anesthetized, the animal was immobilized onto a frog board and subjected to trace of normal electrocardiogram over 2 min with Lead II. Then, PIT (1.5 IU/kg) was injected slowly over 20 s into the rat through its tail vein. The changes in the electrocardiogram were traced in 15 min after PIT injection. The data from the ST segment were collected at the time-points of 10 s, 30 s, 1 min, 2 min, 4 min, 6 min, 8 min, 10 min, 13 min, and 15 min. ST segment shifts at the various time-points after modeling were compared.

Beagle canines = test: long-term toxicity test in canine (21 days): ALT in blood and other indices; assay type: in vivo; conditions: intragastric once per day
Excerpt: Animals: Conventional, healthy adult Beagle canines, evenly composed of males and females, 6-8 month-old, body weight of 9 - 11 kg.
Medicaments: Z01 (echinocystic acid:oleanolic acid = 3:1, prepared by the method in Example 4, in which the total content of the echinocystic acid and the oleanolic acid is 99%), in-house-made off-white tablet, Lot number: 090205; Z02 (echinocystic acid:oleanolic acid = 1:1, prepared by the method in Example 1, in which the amount of echinocystic acid and oleanolic acid accounts to 94.2% of the amount of the extract), in-house-made off-white tablet, Lot number: 090206; in-house-made echinocystic acid EA (containing 98.5% of echinocystic acid), pure-white powder, Lot number: 090107; physiological saline, colorless clarified liquid, provided by Chengdu QingShan LiKang Pharmarceutical co., Ltd., Lot number: A0803025; Alanine Transarninase (ALT) Kit, provided by Sichuan MiKe Science & Technology Co., Ltd., Lot number: 1007071.
Major instruments: a fully automated blood biochemistry analyzer (Roche Integra 400 Plus, Switzerland), a fully automated hematology analyzer (Abbott CELL-DYN 3700SL, USA), a fully automated blood coagulation analyzer (SYSMEX CA-500, Japan), a four-channel physiological recording system (RM6240, Chengdu Instrument Factory, China), electronic balance, etc.
Procedure: The normal Beagle canines were subjected to quanrantine for two weeks and a dog with abnormal parameters was rejected. The selected dogs were assigned randomly into ten groups: blank control group, low dose Z01 group (the dosage of echinocystic acid, 50 mg/kg), medium dose Z01group (the dosage of echinocystic acid, 150 mg/kg), high dose Z01 group (the dosage of echinocystic acid, 250 mg/kg), Z02 low dose group (the dosage of echinocystic acid, 50 mg/kg), medium dose Z02 group (the dosage of echinocystic acid, 150 mg/kg), high dose Z02 group (echinocystic acid is 250 mg/kg), low dose EA group (50mg/kg), medium dose EA group (150mg/kg), high dose EA group (250mg/kg), with 8 animals per group evenly composed of males and females. All of the dogs in individual groups were intragastrically administered at a volume of 10 ml/kg, once per day and successively for 21 days. Prior to and at Day 21 after the administration, samples of urine excreted naturally in the morning and blood from forelimb vein were collected respectively for urine routine, blood routine, and coagulation-time determination, meanwhile the lead II electrocardiogram was traced. Prior to the administration and at Day 4, Day 7, Day 14, and Day 21 after the first administration, blood samples were collected from the canine forelimb vein and assayed on the biochemical indicator associated with liver function. In twenty-four hours after the final administration, the animals in each group were dissected, autopsied systematically and observed with naked eyes. The parenchymal organs were weighed, subjected to calculation of organ coefficients, and examined histopathologically. […] Pathologic results were descriptively discussed.

[3] = OA 4.0 mg/kg intragastric 4 weeks
[4] = OA 17.0 mg/kg intragastric 7 days
[5] = EA 12.2 mg/kg intragastric 4 weeks
[6] = EA 50.8 mg/kg intragastric 7 days
[7] = echinocystic acid content 50 mg/kg
[8] = echinocystic acid content 150 mg/kg
[9] = echinocystic acid content 250 mg/kg

## CC1(C)CC[C@]2(C(=O)O)CC[C@]3(C)C(=CC[C@@H]4[C@@]5(C)CC[C@H](O)C(C)(C)[C@@H]5CC[C@]43C)[C@@H]2C1 [OA, oleanolic acid]
[1]; [3]
  Serum TC After administration: 12.05 ± 6.48 mmol/L
  Serum TC prior to administration: 14.97 ± 5.22 mmol/L
  Serum TG After administration: 1.83 ± 1.02 mmol/L
  Serum TG prior to administration: 2.06 ± 0.44 mmol/L
[2]; [4]
  ΔST Σ: 0.739± 0.408Δ mV
  ΔST 10 sec: 0.132± 0.113 mV
  ΔST 30 sec: 0.068± 0.044 mV
  ΔST 1 min: 0.079± 0.052 mV
  ΔST 2 min: 0.061± 0.034 mV
  ΔST 4 min: 0.082± 0.055 mV
  ΔST 6 min: 0.080± 0.067 mV
  ΔST 8 min: 0.073± 0.037 mV
  ΔST 10 min: 0.051± 0.032 mV
  ΔST 13 min: 0.060± 0.037 mV
  ΔST 15 min: 0.053± 0.042 mV

## CC1(C)CC[C@]2(C(=O)O)[C@H](O)C[C@]3(C)C(=CC[C@@H]4[C@@]5(C)CC[C@H](O)C(C)(C)[C@@H]5CC[C@]43C)[C@@H]2C1 [EA, echinocystic acid]
[1]; [5]
  Serum TC After administration: 9.77 ± 6.30 mmol/L
  Serum TC prior to administration: 15.07 ± 5.48 mmol/L
  Serum TG After administration: 1.64 ± 0.89 mmol/L
  Serum TG prior to administration: 2.17 ± 1.04 mmol/L
[2]; [6]
  ΔST Σ: 0.653± 0.367 mV
  ΔST 10 sec: 0.089± 0.089 mV
  ΔST 30 sec: 0.060± 0.053 mV
  ΔST 1 min: 0.064± 0.032 mV
  ΔST 2 min: 0.075± 0.063 mV
  ΔST 4 min: 0.060± 0.039 mV
  ΔST 6 min: 0.063± 0.045 mV
  ΔST 8 min: 0.070± 0.048 mV
  ΔST 10 min: 0.061± 0.042 mV
  ΔST 13 min: 0.055± 0.039 mV
  ΔST 15 min: 0.056± 0.048 mV
Beagle canines; [7]
  ALT at different time-points after administration, Day 4: 41.4±9.3 U/L
  ALT at different time-points after administration, Day 7: 60.3±11.6 U/L
  ALT at different time-points after administration, Day 14: 58.3±9.1 U/L
  ALT at different time-points after administration, Day 21: 69.7±6.2 U/L
  ALT, Prior to administration: 38.8±5.8 U/L
Beagle canines; [8]
  ALT at different time-points after administration, Day 4: 42.6±8.9 U/L
  ALT at different time-points after administration, Day 7: 70.6±22.3 U/L
  ALT at different time-points after administration, Day 14: 121.3±19.3 U/L
  ALT at different time-points after administration, Day 21: 124.5±35.3 U/L
  ALT, Prior to administration: 40.3±6.2 U/L
Beagle canines; [9]
  ALT at different time-points after administration, Day 4: 45.4±9.9 U/L
  ALT at different time-points after administration, Day 7: 146.5±49.0 U/L
  ALT at different time-points after administration, Day 14: 167.5±43.3 U/L
  ALT at different time-points after administration, Day 21: 151.3±86.6 U/L
  ALT, Prior to administration: 37.3±5.2 U/L
